Patent US20240108618A1, “KRAS G12C INHIBITOR DOSING REGIMENS” (Eli Lilly and Company, priority 2022, published 2024)
Several values for one entry are separate records, joined by “and”; a condition that tells them apart may be missing. Equal values may be shown once.

Tested on: KRAS G12C-mutant advanced solid tumors
Test: NCT04956640 Phase 1a monotherapy clinical response (BOR, ORR, DCR, DOR, TTR, % change from baseline, treatment duration)
Format: in vivo, human
Parameters: key to Duration of response (months), Median / Best Response: CR: complete response; PR: partial response; uPR: a partial response pending confirmation; SD: stable disease; PD: progressive disease; NE: not estimable
Conditions: for Time to response (months), Interquartile range / Time to response (months), Median / Duration of response (months), Median / % Change from Baseline in Sum of Diameters for all Target Lesions / Best Response / Time (months) of Death / Time (months) of Partial Response - Confirmed / Time (months) of Progressive Disease / Time (months) of Partial Response - Pending Confirmation and Ongoing / Patients with best overall response of CR or PR: Phase 1a; for Duration of response (months), Median: Kaplan-Meier estimate; for % Change from Baseline in Sum of Diameters for all Target Lesions / Best Response / Time (months) of Death / Time (months) of Partial Response - Confirmed / Time (months) of Progressive Disease / Time (months) of Partial Response - Pending Confirmation and Ongoing: individual patients
Description: The term “BOR” as used herein refers to best overall response based on investigator assessments using RECIST criteria (version 1.1). The minimum duration for BOR of SD is at least 6 weeks after the date of first dose of study drug.
The term “DOR” as used herein refers to duration of response, wherein DOR in months is calculated as the event or censoring date minus the response start date plus 1 day divided by 30.4375.
The term “ORR” as used herein refers to objective response rate, wherein objective response rate is the proportion of patients with BOR of CR or PR. Objective response rate, unconfirmed, is the proportion of patients with BOR of CR, PR, or uPR.
The term “TTR” as used herein refers to time to response, wherein TTR in months is calculated as response start date minus first dose date plus 1 day divided by 30.4375.
NCT04956640 includes Phase 1a dose escalation (Part A of NCT04956640, see Table 3) followed by a Phase 1b dose expansion (Parts B to E of NCT04956640, see Table 4). […] Phase 1b dose expansion will include 12 cohorts (See Table 4) to further evaluate safety and clinical activity.

[1] = starting dose 50 BID, no prior KRAS G12Ci, listed as compound of Formula I
[2] = starting dose 50 BID, prior KRAS G12Ci Y, listed as compound of Formula I
[3] = starting dose 100 BID, no prior KRAS G12Ci, listed as compound of Formula I
[4] = starting dose 100 BID, prior KRAS G12Ci Y
[5] = starting dose 100 BID, prior KRAS G12Ci Y, listed as compound of Formula I
[6] = starting dose 150 BID, no prior KRAS G12Ci, listed as compound of Formula I
[7] = starting dose 150 BID, prior KRAS G12Ci Y, listed as compound of Formula I
[8] = starting dose 200 BID, no prior KRAS G12Ci, listed as compound of Formula I
[9] = starting dose 200 BID, prior KRAS G12Ci Y, listed as compound of Formula I
[10] = starting dose 50 mg BID (N = 14)
[11] = starting dose 100 mg BID (N = 24)
[12] = starting dose 150 mg BID (N = 25)
[13] = starting dose 200 mg BID (N = 12)
[14] = starting dose 50 mg BID, incl. intrapatient dose escalation
[15] = starting dose 100 mg BID, incl. intrapatient dose escalation
[16] = starting dose 150 mg BID, 11 patients with scan data
[17] = starting dose 200 mg BID, 5 patients with scan data

C=CC(=O)N1CCN2C(=O)c3cc(F)c(-c4ccc(F)c5sc(N)c(C#N)c45)c(Cl)c3OCC[C@H]2C1 (single isomer, unassigned) [Formula I]
Time to response (months), Interquartile range (Total (N = 75)): 1.45 months
Time to response (months), Median (Total (N = 75)): 1.41 months
Duration of response (months), Median (Total (N = 75)): 6.24 months
% Change from Baseline in Sum of Diameters for all Target Lesions [1]: 9.7% and −0.3% and −6.0% and −8.6% and −9.9% and −10.5% and −13.1% and −17.1% and −26.8% and −31.6% and −45.0%
Best Response [1]: PD and SD (8×) and PR Confirmed (2×)
Time (months) of Death [1]: 9.8 months and 5.7 months and 1.8 months and 7.4 months and 11.5 months
Time (months) of Partial Response - Confirmed [1]: 1.3 months and 1.2 months
Time (months) of Progressive Disease [1]: 6.7 months and 2.8 months (2×) and 1.2 months and 5.3 months and 2.7 months and 11.1 months
% Change from Baseline in Sum of Diameters for all Target Lesions [2]: −13.0% and 50.0%
Best Response [2]: SD and PD
Time (months) of Death [2]: 8.4 months and 1.8 months
Time (months) of Progressive Disease [2]: 5.6 months and 1.3 months and 1.0 months
% Change from Baseline in Sum of Diameters for all Target Lesions [3]: 0.7% and 0.5% and −4.8% and −6.0% and −8.1% and −17.3% and −21.1% and −22.4% and −22.7% and −25.1% and −29.8% and −30.0% and −32.3% (2×) and −35.4% and −51.4% and −54.0% and −54.8% and −57.1% and −84.4%
Best Response [3]: SD (10×) and PD (2×) and PR Pending (2×) and PR Confirmed (6×)
Time (months) of Death [3]: 7.0 months and 10.3 months and 7.6 months and 1.7 months
Time (months) of Partial Response - Confirmed [3]: 1.3 months and 1.4 months (4×) and 7.7 months
Time (months) of Partial Response - Pending Confirmation and Ongoing [3]: 5.5 months and 1.2 months
Time (months) of Progressive Disease [3]: 2.9 months and 2.7 months and 4.2 months and 6.9 months and 4.1 months and 1.2 months and 5.6 months and 1.3 months and 9.5 months
Time (months) of Death [4]: 4.2 months
Time (months) of Partial Response - Confirmed [4]: 3.1 months
Time (months) of Progressive Disease [4]: 2.8 months
% Change from Baseline in Sum of Diameters for all Target Lesions [5]: −4.3% and −40.0% and −44.7%
Best Response [5]: SD (2×) and PR Confirmed
Time (months) of Partial Response - Pending Confirmation and Ongoing (starting dose 150 BID, no prior KRAS G12Ci): 1.2 months
% Change from Baseline in Sum of Diameters for all Target Lesions [6]: 27.3% and 4.3% and 3.8% and 3.4% and 0.0% and −0.7% and −5.3% and −7.1% and −8.2% and −11.5% and −16.7% and −18.8% and −23.3% and −24.0% and −37.0% and −41.6% and −51.0% and −52.4% and −60.3% and −67.9% and −91.1%
Best Response [6]: PD and SD (13×) and PR Pending and PR Confirmed (6×)
Time (months) of Death [6]: 5.3 months and 4.9 months
Time (months) of Partial Response - Confirmed [6]: 1.5 months and 4.1 months and 4.2 months and 1.4 months (3×)
Time (months) of Progressive Disease [6]: 9.7 months and 6.7 months and 7.6 months and 4.1 months and 3.3 months and 1.2 months
Time (months) of Death (starting dose 150 BID, prior KRAS G12Ci Y): 3.3 months
% Change from Baseline in Sum of Diameters for all Target Lesions [7]: −0.7% and −3.3% and −25.8% and −29.7%
Best Response [7]: SD (3×) and PD
Time (months) of Progressive Disease [7]: 4.1 months and 1.2 months
Time (months) of Death (starting dose 200 BID, no prior KRAS G12Ci): 4.7 months
% Change from Baseline in Sum of Diameters for all Target Lesions [8]: −4.2% and −5.0% and −9.6% and −9.9% and −14.3% and −32.3% and −37.5% and −65.9% and −75.0%
Best Response [8]: SD (4×) and PD and PR Confirmed (4×)
Time (months) of Partial Response - Confirmed [8]: 2.8 months and 1.4 months and 1.2 months (2×)
Time (months) of Progressive Disease [8]: 2.9 months and 2.5 months and 1.3 months and 8.3 months and 7.4 months
Time (months) of Progressive Disease (starting dose 200 BID, prior KRAS G12Ci Y): 1.3 months
% Change from Baseline in Sum of Diameters for all Target Lesions [9]: 5.3% and 1.4%
Best Response [9]: PD and SD
Patients with best overall response of CR or PR [10]: 2 (14.3) N′ (%)
Time to response (months), Interquartile range [10]: 0.13 months
Time to response (months), Median [10]: 1.25 months
Duration of response (months), Median [10]: NE
Patients with best overall response of CR or PR [11]: 7 (29.2) N′ (%)
Time to response (months), Interquartile range [11]: 1.68 months
Time to response (months), Median [11]: 1.41 months
Duration of response (months), Median [11]: 5.45 months
Patients with best overall response of CR or PR [12]: 6 (24.0) N′ (%)
Time to response (months), Interquartile range [12]: 2.69 months
Time to response (months), Median [12]: 1.46 months
Duration of response (months), Median [12]: 7.21 months
Patients with best overall response of CR or PR [13]: 4 (33.3) N′ (%)
Time to response (months), Interquartile range [13]: 0.87 months
Time to response (months), Median [13]: 1.33 months
Duration of response (months), Median [13]: 6.93 months
median time to response (human, in vivo): 1.4 month
Best observed response PR (unconfirmed and confirmed), patients (other tumor types): 3
Best observed response SD, patients (other tumor types): 6
PR, patients (starting dose 50 mg BID): 0
DCR [14]: 75%
ORR [14]: 0%
PD, patients (starting dose 100 mg BID): 2 (2 PANC)
DCR [15]: 80%
ORR [15]: 40%
DCR [16]: 90.9%
ORR [16]: 18.2%
DCR [17]: 100%
ORR [17]: 20%
